Measurements as given in US20260232759A1, “PEPTIDES THAT INHIBIT INFECTION BY SARS-COV-2, THE VIRUS THAT CAUSES COVID-19 DISEASE” (Wisconsin Alumni Research Foundation, priority 2021, published 2026).
Starred links: 1 amine or outer side, 2 acyl side, 3 side chain; linkers in the order of their positions; H or OH if unused. Non-standard residues stand in square brackets, D forms with d. *: point of attachment. X2 = CC(C)CCC[C@@H](C)[C@H]1CC[C@H]2[C@@H]3CC=C4C[C@@H](OC(=O)CCOCCOCCOCCOCCNC(=O)C*)CC[C@]4(C)[C@H]3CC[C@]12C; X1 = O=C([C@H]1CNC[C@@H]1N[*:1])[*:2]; β3hE = N[C@@H](CCC(=O)O)CC(=O)O; β3hQ = NC(=O)CC[C@H](N)CC(=O)O; β3hD = NC(CC(=O)O)CC(=O)O; βAla = NCCC(=O)O

Target: T1, SARS-CoV-2 S (Severe acute respiratory syndrome coronavirus 2, UniProt P0DTC2)
T1 construct: expressed in transfected cells
Assay: β-Gal complementation-based cell-cell fusion assay (S-protein-mediated fusion)
Conditions: for IC90: read-out: 90% inhibitory concentration (IC90), inhibition of S-mediated fusion

[1] = 50% inhibitory concentration (IC50), inhibition of S-mediated fusion
[2] = IC50, inhibition of S-mediated fusion

Substance | IC50 [1] [nM] | IC90 [nM] | IC50 [2] [nM]
Ac-[β3hD]IS[β3hQ]INASVVNIEYEIKKLEEVA[X1]KLEESLI[β3hD]L[β3hQ]ELGSGSGC(X2)-NH2 [α/β-SARS2 HRC QE-6] | ~20 | ~100 | –
Ac-[β3hD]IS[β3hQ]INASVVNIEYEI[X1]KLEEVAKKLEESLI[β3hD]L[β3hQ]ELGSGSGC(X2)-NH2 [α/β-SARS2 HRC QE-5] | ~1000 | – | –
Ac-[β3hD]IS[β3hQ]INASVVNIEYEI[X1]KLEEVA[X1]KLEESLI[β3hD]L[β3hQ]ELGSGSGC(X2)-NH2 [α/β-SARS2 HRC QE-7] | ~20 | ~100 | ~10
Ac-[β3hD]IS[β3hQ]INASVVNIEYEI[X1]KLEEVA[X1]KLEESLI[β3hD]L[β3hQ]EL[βAla]SGS[βAla]C(X2)-NH2 [α/β-SARS2 HRC QE-17] | – | – | ~10
Ac-[β3hD]IS[β3hQ]INASVVNIEYEI[X1]KLEEVA[X1]KLE[β3hE]SLI[β3hD]L[β3hQ]ELGSGSGC(X2)-NH2 [α/β-SARS2 HRC QE-8] | ~100 | – | –
Ac-[β3hD]IS[β3hQ]INASVVNI[β3hE]YEI[X1]KLEEVA[X1]KLEESLI[β3hD]L[β3hQ]EL[βAla]SGS[βAla]C(X2)-NH2 [α/β-SARS2 HRC QE-15] | – | – | ~50
